Results: patent publication US5030760A, “Tetrahydrophthalimides, and their production and use” (Sumitomo Chemical Company, Ltd., priority 1981, dated 1991)

Experiments:
monochoria = test: Test Example 7, flooded paddy pot dripping, herbicidal activity; assay type: in vivo, Monochoria vaginalis; settings: 3 weeks; also: ranges in brackets are in %
Protocol: (§1) The application of the tetrahydrophthalimides (I) as herbicides will be illustratively shown in the following Examples wherein the phytotoxicity to cultivated plants and the herbicidal activity on weeds were evaluated as follows: the aerial parts of the test plants were cut off and weighed (fresh weight); the percentage of the fresh weight of the treated plant to that of the untreated plant was calculated with the latter fresh weight taken as 100; and the crop damage and the herbicidal activity were evaluated by the standard given in the table below. The rating values of phytotoxicity, 0 and 1, and those of herbicidal effect, 5 and 4, are generally regarded as satisfactory to protect cultivated plants and control weeds, respectively. The rating values in the paddy field test alone were calculated from the dry weight of the test plants.
(§2) Wagner's pots (1/5000 are) were filled with paddy field soil and water was poured therein to make a flooded condition. Rice seedlings of the 3-leaf stage were transplanted and tubers of slender spikerush and arrowhead and the seeds of barnyardgrass, monochoria and broad-leaved weed were sowed therein and grown for 5 days. When germination occurs, a designed amount of the test compound formulated into an emulsifiable concentrate according to Preparation Example 2 was applied to the pots by dripping. The test plants were grown for a further 3 weeks, and herbicidal activity and phytotoxicity were examined. The herbicidal activity was evaluated in figures ranging from 0 to 5. The phytotoxicity to the crop plants was also indicated on the same standard as that of the herbicidal activity.

tall morningglory [1] = test: Test Example 2, field foliar treatment, herbicidal activity; assay type: in vivo, Ipomoea purpurea; settings: 3 weeks; also: ranges in brackets are in %
Protocol: as §1
(§3) Seeds of corn and broad-leaved weeds such as cocklebur, common purslane and tall morningglory were sown in the field as previously laid up in ridges, each ridge having an upper width of 1 m. At the time when the corn grew up to the 6-leaf stage and the broad-leaved weeds up to 2 to 5-leaf stages, a designed amount of the test compound formulated into an emulsifiable concentrate according to Preparation Example 2 and dispersed in water was sprayed to the foliage of the test plants with three replications over the top by means of a small hand sprayer at a spray volume of 5 liters per are. After cultivation for 3 weeks, herbicidal activity and phytotoxicity were examined.

common purslane = test: as above; assay type: in vivo, Portulaca oleracea; settings: 3 weeks; also: ranges in brackets are in %
Protocol: as §1, §3

corn [2] = test: Test Example 2, field foliar treatment, phytotoxicity to corn; assay type: in vivo; settings: 3 weeks; also: ranges in brackets are in %
Protocol: as §1, §3

barnyardgrass [3] = test: Test Example 7, flooded paddy pot dripping, herbicidal activity; assay type: in vivo, Echinochloa crus-galli; settings: 3 weeks; also: ranges in brackets are in %
Protocol: as §1, §2

slender spikerush = test: as above; assay type: in vivo, Eleocharis acicularis; settings: 3 weeks; also: ranges in brackets are in %
Protocol: as §1, §2

rice plant = test: Test Example 7, flooded paddy pot dripping, phytotoxicity to rice plant; assay type: in vivo; settings: 3 weeks; also: ranges in brackets are in %
Protocol: as §1, §2

arrowhead = test: Test Example 7, flooded paddy pot dripping, herbicidal activity; assay type: in vivo, Sagittaria pygmaea; settings: 3 weeks; also: ranges in brackets are in %
Protocol: as §1, §2

broad-leaved weed = test: as above; assay type: in vivo; settings: 3 weeks; also: ranges in brackets are in %
Protocol: as §1, §2

cocklebur = test: Test Example 2, field foliar treatment, herbicidal activity; assay type: in vivo, Xanthium pennsylvanicum; settings: 3 weeks; also: ranges in brackets are in %
Protocol: as §1, §3

velvetleaf [4] = test: Test Example 5, spraying over the top, herbicidal activity; assay type: in vivo, Abutilon theophrasti; settings: sprayed over the top, 20 days; also: ranges in brackets are in %
Protocol: as §1
(§4) Plastic trays (35 cm×25 cm×15 cm) were filled with upland field soil, and the seeds of tall morningglory, velvetleaf, jimsonweed, sicklepod, hemp sesbania, prickly side, Johnsongrass, green foxtail and large crabgrass and the seeds of soybean were sown therein. A designed amount of the test compound formulated into a wettable powder according to Preparation Example 1 and dispersed in water was sprayed over the top by means of a small hand sprayer at a spray volume of 5 liters per are. After the spraying, the test plants were grown in greenhouse for 20 days, and phytotoxicity and herbicidal activity were examined.

jimsonweed = test: as above; assay type: in vivo, Datura stramonium; settings: sprayed over the top, 20 days; also: ranges in brackets are in %
Protocol: as §1, §4

Johnsongrass [5] = test: Test Example 4, pre-emergence treatment, herbicidal activity; assay type: in vivo, Sorghum halepense; settings: 20 days; also: ranges in brackets are in %
Protocol: as §1
(§5) Plastic beakers (diameter, 10 cm; height, 10 cm) were filled with upland field soil, and the seeds of corn, cotton and soybean and the seeds of morningglory, velvetleaf, Johnsongrass and green foxtail were separately sown in the beakers. A designed amount of the test compound was sprayed over the top by means of a small hand sprayer. After the spraying, the test plants were grown for 20 days in the greenhouse, and herbicidal activity and phytotoxicity were examined. In this pre-emergence treatment, the test compounds were formulated into an emulsifiable concentrate according to Preparation Example 2 and applied at a spray volume of 5 liters per are by dispersing it in water with the addition of a spreading agent.

soybean [6] = test: Test Example 4, pre-emergence treatment, phytotoxicity to soybean; assay type: in vivo; settings: 20 days; also: ranges in brackets are in %
Protocol: as §1, §5

velvetleaf [7] = test: Test Example 1, foliar treatment, herbicidal activity; assay type: in vivo, Abutilon theophrasti; settings: 3 weeks; also: ranges in brackets are in %
Protocol: as §1
(§6) Plastic beakers (diameter, 10 cm; height, 10 cm) were filled with upland field soil, and the seeds of corn, barnyardgrass, wild oat, wild mustard and velvetleaf were separately sown in the beakers and grown for 2 weeks in the greenhouse. A designed amount of the test compound was sprayed to the foliage of the test plants by means of a small hand sprayer. After the spraying, the test plants were further grown for 3 weeks in the greenhouse, and herbicidal activity was examined. In this foliar treatment, the test compounds were formulated into an emulsifiable concentrate according to Preparation Example 2 and applied at a spray volume of 5 liters per are by dispersing it in water with the addition of a spreading agent.

morningglory = test: Test Example 4, pre-emergence treatment, herbicidal activity; assay type: in vivo; settings: 10 g/are, 20 days; also: ranges in brackets are in %
Protocol: as §1, §5

corn [8] = test: Test Example 1, foliar treatment, phytotoxicity to corn; assay type: in vivo; settings: 3 weeks; also: ranges in brackets are in %
Protocol: as §1, §6

green foxtail [9] = test: Test Example 5, spraying over the top, herbicidal activity; assay type: in vivo, Setaria viridis; settings: sprayed over the top, 20 days; also: ranges in brackets are in %
Protocol: as §1, §4

wild mustard = test: Test Example 1, foliar treatment, herbicidal activity; assay type: in vivo, Brassica kaber; settings: 3 weeks
Protocol: as §1, §6

velvetleaf [10] = test: Test Example 4, pre-emergence treatment, herbicidal activity; assay type: in vivo, Abutilon theophrasti; settings: 20 days; also: ranges in brackets are in %
Protocol: as §1, §5

barnyardgrass [11] = test: Test Example 1, foliar treatment, herbicidal activity; assay type: in vivo, Echinochloa crus-galli; settings: 3 weeks; also: ranges in brackets are in %
Protocol: as §1, §6

wild oat = test: as above; assay type: in vivo, Avena fatua; settings: 3 weeks; also: ranges in brackets are in %
Protocol: as §1, §6

sicklepod = test: Test Example 5, spraying over the top, herbicidal activity; assay type: in vivo, Cassia obtusifolia; settings: sprayed over the top, 20 days; also: ranges in brackets are in %
Protocol: as §1, §4

hemp sesbania = test: as above; assay type: in vivo, Sesbania exaltator; settings: sprayed over the top, 20 days; also: ranges in brackets are in %
Protocol: as §1, §4

tall morningglory [12] = test: as above; assay type: in vivo, Ipomoea purpurea; settings: sprayed over the top, 20 days
Protocol: as §1, §4

green foxtail [13] = test: Test Example 4, pre-emergence treatment, herbicidal activity; assay type: in vivo, Setaria viridis; settings: 20 days; also: ranges in brackets are in %
Protocol: as §1, §5

prickly sida = test: Test Example 5, spraying over the top, herbicidal activity; assay type: in vivo, Sida spinosa; settings: sprayed over the top, 20 days; also: ranges in brackets are in %
Protocol: as §1, §4

corn [14] = test: Test Example 4, pre-emergence treatment, phytotoxicity to corn; assay type: in vivo; settings: 20 days; also: ranges in brackets are in %
Protocol: as §1, §5

cotton = test: Test Example 4, pre-emergence treatment, phytotoxicity to cotton; assay type: in vivo; settings: 2.5 g/are, 20 days; also: ranges in brackets are in %
Protocol: as §1, §5

soybean [15] = test: Test Example 5, spraying over the top, phytotoxicity to soybean; assay type: in vivo; settings: sprayed over the top, 20 days; also: ranges in brackets are in %
Protocol: as §1, §4

Johnsongrass [16] = test: Test Example 5, spraying over the top, herbicidal activity; assay type: in vivo, Sorghum halepense; settings: sprayed over the top, 20 days; also: ranges in brackets are in %
Protocol: as §1, §4

large crabgrass = test: as above; assay type: in vivo, Digitaria sanguinalis; settings: sprayed over the top, 20 days; also: ranges in brackets are in %
Protocol: as §1, §4
For Herbicidal activity, Tall morningglory in this document: ranges in brackets are in %.

SMILES: CCCCCOc1cc(N2C(=O)C3=C(CCCC3)C2=O)c(F)cc1Cl [Compound No. 7, N-(4-chloro-2-fluoro-5-n-amyloxyphenyl)-3,4,5,6-terahydrophthalimide]
- Herbicidal activity, Monochoria (monochoria; 1.25 g/are): 5 (90-100)
- Herbicidal activity, Monochoria (monochoria; 2.5 g/are): 5 (90-100)
- Herbicidal activity, Monochoria (monochoria; 5 g/are): 5 (90-100)
- Herbicidal activity, Tall morningglory (tall morningglory [1]; 0.16 g/are): 2 (21-40)
- Herbicidal activity, Tall morningglory (tall morningglory [1]; 0.32 g/are): 3 (11-20)
- Herbicidal activity, Tall morningglory (tall morningglory [1]; 0.63 g/are): 4 (1-10)
- Herbicidal activity, Common purslane (common purslane; 0.16 g/are): 5 (0)
- Herbicidal activity, Common purslane (common purslane; 0.32 g/are): 5 (0)
- Herbicidal activity, Common purslane (common purslane; 0.63 g/are): 5 (0)
- Phytotoxicity, Corn (corn [2]; 0.16 g/are): 0 (100)
- Phytotoxicity, Corn (corn [2]; 0.32 g/are): 0 (100)
- Phytotoxicity, Corn (corn [2]; 0.63 g/are): 0 (100)
- Herbicidal activity, Barnyardgrass (barnyardgrass [3]; 1.25 g/are): 4 (70-89)
- Herbicidal activity, Barnyardgrass (barnyardgrass [3]; 2.5 g/are): 5 (90-100)
- Herbicidal activity, Barnyardgrass (barnyardgrass [3]; 5 g/are): 5 (90-100)
- Herbicidal activity, Slender spikerush (slender spikerush; 1.25 g/are): 4 (70-89)
- Herbicidal activity, Slender spikerush (slender spikerush; 2.5 g/are): 5 (90-100)
- Herbicidal activity, Slender spikerush (slender spikerush; 5 g/are): 5 (90-100)
- Phytotoxicity, Rice plant (rice plant; 1.25 g/are): 0 (0-9)
- Phytotoxicity, Rice plant (rice plant; 2.5 g/are): 0 (0-9)
- Phytotoxicity, Rice plant (rice plant; 5 g/are): 0 (0-9)
- Herbicidal activity, Allowhead (arrowhead; 1.25 g/are): 3 (50-69)
- Herbicidal activity, Allowhead (arrowhead; 2.5 g/are): 4 (70-89)
- Herbicidal activity, Allowhead (arrowhead; 5 g/are): 5 (90-100)
- Herbicidal activity, Broad-leaved weed (broad-leaved weed; 1.25 g/are): 5 (90-100)
- Herbicidal activity, Broad-leaved weed (broad-leaved weed; 2.5 g/are): 5 (90-100)
- Herbicidal activity, Broad-leaved weed (broad-leaved weed; 5 g/are): 5 (90-100)
- Herbicidal activity, Cocklebur (cocklebur; 0.16 g/are): 4 (1-10)
- Herbicidal activity, Cocklebur (cocklebur; 0.32 g/are): 4 (1-10)
- Herbicidal activity, Cocklebur (cocklebur; 0.63 g/are): 5 (0)

SMILES: COc1cc(N2C(=O)C3=C(CCCC3)C2=O)c(F)cc1Br [Compound No. 12, N-(4-bromo-2-fluoro-5-methoxyphenyl)-3,4,5,6-tetrahydrophthalimide]
- Herbicidal activity, Velvetleaf (velvetleaf [4]; 3 g/are): 5 (0)
- Herbicidal activity, Velvetleaf (velvetleaf [4]; 9 g/are): 5 (0)
- Herbicidal activity, Jimsonweed (jimsonweed; 3 g/are): 5 (0)
- Herbicidal activity, Jimsonweed (jimsonweed; 9 g/are): 5 (0)
- Herbicidal activity, Johnsongrass (Johnsongrass [5]; 2.5 g/are): 5 (0)
- Herbicidal activity, Johnsongrass (Johnsongrass [5]; 10 g/are): 5 (0)
- Phytotoxicity, Soybean (soybean [6]; 2.5 g/are): 0 (100)
- Phytotoxicity, Soybean (soybean [6]; 10 g/are): 0 (100)
- Herbicidal activity, Velvetleaf (velvetleaf [7]; 1.25 g/are): 5 (0)
- Herbicidal activity, Velvetleaf (velvetleaf [7]; 5 g/are): 5 (0)
- Herbicidal activity, Morningglory (morningglory): 5 (0)
- Phytotoxicity, Corn (corn [8]; 1.25 g/are): 1 (90-99)
- Phytotoxicity, Corn (corn [8]; 5 g/are): 1 (90-99)
- Herbicidal activity, Green foxtail (green foxtail [9]; 3 g/are): 5 (0)
- Herbicidal activity, Green foxtail (green foxtail [9]; 9 g/are): 5 (0)
- Herbicidal activity, Wild mustard (wild mustard; 1.25 g/are): 4 (1-10)
- Herbicidal activity, Wild mustard (wild mustard; 5 g/are): 5 (0)
- Herbicidal activity, Velvetleaf (velvetleaf [10]; 2.5 g/are): 5 (0)
- Herbicidal activity, Velvetleaf (velvetleaf [10]; 10 g/are): 5 (0)
- Herbicidal activity, Barnyardgrass (barnyardgrass [11]; 1.25 g/are): 2 (21-40)
- Herbicidal activity, Barnyardgrass (barnyardgrass [11]; 5 g/are): 5 (0)
- Herbicidal activity, Wild cat (wild oat; 1.25 g/are): 1 (41-60)
- Herbicidal activity, Wild cat (wild oat; 5 g/are): 5 (0)
- Herbicidal activity, Sicklepod (sicklepod; 3 g/are): 4 (1-10)
- Herbicidal activity, Sicklepod (sicklepod; 9 g/are): 5 (0)
- Herbicidal activity, Hemp sesbania (hemp sesbania; 3 g/are): 4 (1-10)
- Herbicidal activity, Hemp sesbania (hemp sesbania; 9 g/are): 5 (0)
- Herbicidal activity, Tall morningglory (tall morningglory [12]; 3 g/are): 4 (1-10)
- Herbicidal activity, Tall morningglory (tall morningglory [12]; 9 g/are): 5 (0)
- Herbicidal activity, Green foxtail (green foxtail [13]; 2.5 g/are): 5 (0)
- Herbicidal activity, Green foxtail (green foxtail [13]; 10 g/are): 5 (0)
- Herbicidal activity, Prickly sida (prickly sida; 3 g/are): 5 (0)
- Herbicidal activity, Prickly sida (prickly sida; 9 g/are): 5 (0)
- Phytotoxicity, Corn (corn [14]; 2.5 g/are): 0 (100)
- Phytotoxicity, Corn (corn [14]; 10 g/are): 1 (90-99)
- Phytotoxicity, Cotton (cotton): 0 (100)
- Phytotoxicity, Soybean (soybean [15]; 3 g/are): 0 (100)
- Phytotoxicity, Soybean (soybean [15]; 9 g/are): 0 (100)
- Herbicidal activity, Johnsongrass (Johnsongrass [16]; 3 g/are): 5 (0)
- Herbicidal activity, Johnsongrass (Johnsongrass [16]; 9 g/are): 5 (0)
- Herbicidal activity, Large crabgrass (large crabgrass; 3 g/are): 5 (0)
- Herbicidal activity, Large crabgrass (large crabgrass; 9 g/are): 5 (0)
